Data reported in publication PMC9394284, “Discovery of Novel Dual Adenosine A2A and A1 Receptor Antagonists with 1H-Pyrazolo[3,4-d]pyrimidin-6-amine Core Scaffold as Anti-Parkinson’s Disease Agents” (Pharmaceuticals, 2022).

Assays:
A1 adenosine receptor = molecular target: T1, A1 adenosine receptor (Homo sapiens, UniProt P30542); assay: cyclic AMP HTRF functional assay, CHO-K1 (A1); type: cell-based; settings: CHO-K1 cells
T1 sequence (P30542 1-326): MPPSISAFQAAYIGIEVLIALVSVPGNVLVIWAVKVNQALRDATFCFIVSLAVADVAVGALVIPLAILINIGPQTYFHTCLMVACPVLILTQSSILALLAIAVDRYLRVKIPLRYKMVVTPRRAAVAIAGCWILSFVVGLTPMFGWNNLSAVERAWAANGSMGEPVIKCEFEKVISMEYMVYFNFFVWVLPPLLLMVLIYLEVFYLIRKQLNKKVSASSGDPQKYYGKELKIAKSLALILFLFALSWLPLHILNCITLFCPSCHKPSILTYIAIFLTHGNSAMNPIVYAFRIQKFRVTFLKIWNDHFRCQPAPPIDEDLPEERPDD
Procedure: Next, the functional activity of 11o against A1 and A2A adenosine receptors was evaluated using c-AMP assay in CHO-K1 (A1) and HEK-293 (A2A) cells.
For functional studies, A1 and A2A receptor cyclic AMP HTRF (homogeneous time resolved fluorescence) assay was performed at EuroscreenFast (Charleroi, Belgium) using CHO-K1 (A1) and HEK293 (A2A) stable cell line with CPA (A1) and NECA (A2A) as reference agonist and DPCPX (A1) and ZM241385 (A2A) as reference antagonist compound.

[1] = test system: haloperidol-induced catalepsy; assay: haloperidol-induced catalepsy in female rats (bar test); type: in vivo, Sprague Dawley rats
Procedure: Vehicle or varying amount of 11o (0.3, 1, 3, 10 mg/kg) was administered first, followed by IP injection of 1 mg/kg haloperidol 60 min later.
A total of 120 female Sprague Dawley rats (275~300 g) were purchased from Charles River Laboratories (Charles River, Senneville, QC, Canada) and maintained at Atuka, Inc. All animal studies were conducted at Atuka, Inc. according to CCAC guidelines and under IACUC-approved Animal Use Protocols (AUPs), with IACUC number 6606.0.3 for this study.
The catalepsy study incorporated 12 groups of rats. Ten rats were incorporated into each treatment group (total N = 120 rats). Treatments were divided over 3 consecutive treatment blocks and the order of treatments were randomized within each block and all treatments completed within that block before proceeding to the next. […] Catalepsy was assessed a further 60 min later (t = 120).
Behavior was evaluated in each animal by assessing performance on the bar test. Catalepsy was assessed 60 min following haloperidol administration (120 min following administration of vehicle, 11o or istradefylline). […] The time taken for the animal to remove both paws (decent latency) from the rod and place them back on the surface, in seconds was determined. The test was conducted in triplicate and the average of the three tests were calculated.

beagle dogs = assay: maximum tolerated dose, single oral administration, dog; settings: in vivo, po
Procedure: (§1) Rat and dog MTD studies were performed at Frontage Laboratories Inc following testing facility’s SOPs. All procedures described were reviewed and approved by the Institutional Animal Care and Use Committee (IACUC) at Frontage Laboratories Inc.
(§2) For dog MTD study, male and female beagle dogs (Canis familiaris) of 1.3 to 1.4 years of age were from Frontage Laboratories’ test facility stock colony, originally procured from Marshall BioResources (North Rose, NY, USA). The health status of the animals was reviewed by a staff veterinarian. Data collected on animals prior to release to study were maintained as testing facility records. Same dogs were used for each dose event. Animals received a single dose of 11o in 0.5% methyl cellulose via oral gavage starting from 50 mg/kg dose level in 5 mL/kg dose volume. Subsequent doses occurred 3 or 4 days following the previous dose and were increased based on findings from the previous dosing(s). The procedure continued until four dosing events occurred. Animals were fasted overnight prior to each dose administration with food provided approximately 4 h post-dose. Animals were observed once in the morning and once in the afternoon throughout the study for clinical observations. Body weights were measured on the day prior to dose administration. Data were collected and reported electronically using Provantis^TM (Instem LSS Ltd., Staffordshire, UK).

[2] = as above; settings: both sexes, in vivo, single oral administration, male and female beagle dogs
Procedure: as §1, §2

[3] = metabolic stability in cryopreserved human hepatocytes
Procedure: (§3) Metabolic stability of 11o was determined in cryopreserved hepatocytes from mice, rats, dogs, monkeys and human according to the SOPs of Frontage Laboratories Inc. Briefly, cryopreserved hepatocytes for pre-clinical animals and for human (BioIVT, Westbury, NY, USA) were thawed in a 37 °C water bath with gentle shaking until ice had almost melted. The suspensions were immediately transferred to a centrifuge tube (50 mL) containing pre-warmed thawing media at 37 °C with gentle handshaking to prevent the cells from settling. Cell suspensions were centrifuged at 50× g and 4 °C for 5 min. The supernatant was discarded and the pellets were resuspended in prewarmed incubation media (5 mL) at 37 °C. The percentage of viable cells in the suspension was determined by Trypan blue staining method to ensure viability of ≥70 %. […] The samples were centrifuged and aliquots of the supernatant were analyzed for parent compounds by LC/MS/MS using suitable multiple reaction monitoring (MRM) transitions. […] The disappearance of 11o and midazolam was monitored by LC/MS/MS (MRM) analysis of the hepatocyte extracts at each time point. The peak area ratio of the analyte to internal standard was obtained for each sample and the rate of disappearance of 11o was assessed by comparing the peak area ratios at various time points to the peak area ratio obtained at t = 0. The t1/2 is obtained (using the linear portion of semi-log plot of the area ratio vs. time) and the CLint values determined using well-stirred model.

[4] = metabolic stability in cryopreserved monkey hepatocytes
Procedure: as §3

[5] = human, cryopreserved hepatocytes in suspension

SMILES: Cc1cc(Cn2ncc3c(-c4cccc(C#N)c4F)nc(N)nc32)ccc1N [11o, 3-(6-Amino-1-(4-amino-3-methylbenzyl)-1H-pyrazolo[3,4-d]pyrimidin-4-yl)-2-fluorobenzonitrile]
- functional activity at A1 receptor (A1 adenosine receptor): full antagonism
- IC50 (A1 adenosine receptor; read-out: IC50, A1 functional antagonism (c-AMP)): 98.8 nM
- reversal of haloperidol-induced catalepsy (latency to step down) ([1]; 0.3, 1, 3, 10 mg/kg PO, maximum effect at 10 mg/kg, comparable to istradefylline 1 mg/kg): dose-dependently reversed haloperidol-induced catalepsy
- ED50 ([1]; Rattus norvegicus, PO 60 min before haloperidol 1 mg/kg, read-out: graded ED50, reversal of haloperidol-induced catalepsy): 3 to 10 mg/kg
- body weight change, female dogs (beagle dogs): −6.5%
- body weight change, male dogs (beagle dogs): −5.7%
- MTD [2]: > 400 mg/kg
- Extrapolated Clearance, CL ([3]; human hepatocytes, 1 μM 11o): 9.58 mL/min/kg
- Intrinsic Clearance ([3]; human hepatocytes, 1 μM 11o): 0.00377 mL/min/10^6 Cells
- half-life at 1 μM [3, 5]: 3.07 h
- hepatocyte CLint at 1 μM [3, 5]: 3.8 µL/min/1e6 cells
- CLint scaled at 1 μM ([3]; human, cryopreserved hepatocytes in suspension, Extrapolated Clearance, CL, human hepatocytes, 1 μM 11o): 9.6 mL/min/kg
- CLint in human hepatocytes relative to midazolam ([3]; human, hepatocytes): less than 40 % of midazolam
- CLint scaled at 1 μM ([4]; cynomolgus monkey, cryopreserved hepatocytes in suspension): 20.1 mL/min/kg
- Intrinsic Clearance ([4]; monkey hepatocytes, 1 μM 11o): 0.00558 mL/min/10^6 Cells
- half-life at 1 μM ([4]; monkey, cryopreserved hepatocytes in suspension): 2.07 h
